Data on one molecule can be found in patent publication US11869191B2, “System and method for tissue viability screening” (THE REGENTS OF THE UNIVERSITY OF CALIFORNIA, priority 2019, dated 2024).

The subject of this test is pre-implantation mouse embryos. Description: Inhibition of glycolysis, phasor-FLIM of NADH lifetime in embryos. The class given is cell-based. The note with it: 1 mM, early blastocyst stage embryos; g value vs control p-value=3.88E-09. The procedure:
Embryos were placed in 25 μl microdroplets of KSOMaa (Invitrogen) with the appropriate inhibitors covered in mineral oil (Sigma). Both of the two chemical inhibitors, rotenone and antimycin A cocktail (R&A) and 2-Deoxyglucose (2DeoxyG) were dissolved in KSOMaa. For R&A, the inhibitor was prepared to perform dose dependence measurements for a final concentration of 100 nM and 500 nM. For 2DeoxyG, the inhibitor has a final concentration of 1 mM. KSOMaa was used as a solvent and culture media for the control group and treatment group embryos.
Fluorescence lifetime images of the pre-implantation embryos were acquired on Zeiss LSM710 (Carl Zeiss, Jena, Germany), a multi-photon microscope coupled with a Ti: Sapphire laser (Spectra-Physics Mai Tai, Mountain View, CA) with 80 MHz repetition rate. […] A dichroic filter at 690 nm was used to separate the fluorescence signal from the laser light. And the emission signal was split with 496 nm LP filter and detected in two channels using a band pass filter 460/80 and a 540/50 filter. […] FLIM calibration of the system was performed by measuring the known lifetime of a fluorophore coumarin 6 (dissolved in ethanol), which has a known fluorescence lifetime of T=2.5 ns(37, 38). […] FLIM data were acquired and processed by the SimFCS software developed at the Laboratory of Fluorescence Dynamics (LFD). […]

As to `O=CC[C@@H](O)[C@H](O)[C@H](O)CO` [2DeoxyG, 2-Deoxy-D-Glucose], the “phasor-FLIM lifetime distribution (free/bound NADH) compared to controls” value is “shifted the phasor-FLIM distribution to longer lifetime”.
